# Source: publication PMC5458179, “Oxidative DNA double strand breaks and autophagy in the antitumor effect of sterically hindered platinum(II) complexes in NSCLCs” (Oncotarget, 2017)
# Tests used:
# Assay type in all cases: cell-based, human
# [1] = tested on: A549 and NCI-H1299 cancer cells; experiment: Colony formation assay; conditions: A549 and NCI-H1299, 7 days
# Experimental: Cells were trypsinized and plated at a density of 500 perplate. […] Cells were then fixed with 3% paraformaldehyde, stained with crystal violet and imaged with a light microscope. The experiment was performed in triplicate. The number of colonies, defined as containing > 50 cells, was counted.
# [2] = tested on: MDC1/Aprataxin; experiment: Immunostaining of DSB repair proteins; conditions: A549, 10 μM, 24 h
# Excerpt: The serine 139-phosphorylated form of chromatin-associated histone H2AX, namely γ-H2AX, is a key marker of cellular response to DDR, particularly DSBs. […] Obviously, pre-treatment of NAC could considerably alleviate the DDR triggered by complex 3 (Figure 5B). Therefore, we came to a conclusion that complex 3 caused DDR especially DSBs in A549 cells, which might happen after the increased level of intracellular ROS. In order to reveal the mechanisms underlying the enhanced DNA damage, complex 3 was studied to learn whether it could reduce the activation of DNA repair response including the co-localization of DSB repair protein MDC1/Aprataxin within nucleus. […] In order to reveal the mechanisms underlying DNA damage, complex 3 was studied to detect whether it could suppress the activation of DNA single strand break repair via the phosphorylation of SSB repair mediator/adaptor proteins XRCC1 within nucleus.
# For assessment of DSBs repair kinetics we detected the total nuclear volume for an average of 50–60 nuclei per time points and cell type. Briefly, A549 cells were grown to confluence in 35 mm petri-dishes with 0.17 mm glass bottom. […] Non-specific binding was blocked by incubation with 5% FCS/PBS/0.1% Triton X-100 for 1 h at RT. […] Numbers of γH2AX foci were counted in 50–60 nuclei and plotted over time as previously described.
# [3] = tested on: A549 cancer cells; experiment: Intracellular GSH measurement; conditions: A549, 10 μM, 4 h
# Experimental: After 4 h, medium was removed and dishes were rinsed three times with cold PBS. The cells were harvested and cell numbers were counted. Then, intracellular GSH levels were measured using a GSH test kit (KeyGen KGT006). A549 and NCI-H1299 cancer cells without treatment were used as control groups.
# [4] = tested on: LC3-II; experiment: Western blot of LC3-II
# Experimental: The role of complex 3-induced autophagy in cell death was further analyzed (Figure 6). When A549 cancer cells were treated with complex 3 of 10 μM, the protein expression of LC3-II was increased (Figure 6A). […] Treatment with complex 3 for 24 h caused a 4.5-folds increase in cells undergoing autophagy (Figure 6C). […] Moreover, Bax and Bcl-2 expressions were measured by western blot analysis of whole cell lysates.
# To investigate the role of ROS in complex 3-induced cell death, the level of intracellular H2O2 was measured. […] Exposure of A549 cells to NAC reduced levels of LC3-II from 2.3- to 1.5-folds (Figure 8B). […] In parallel, the complex 3-induced increase ratio of Bax/Bcl-2 was suppressed by NAC (Figure 8E).
# Lysates were centrifuged at 12,000 g for 0.5 h at 4°C. The concentrations of total proteins were measured using the BCA assay method with Varioskan spectrofluorometer and spectrophotometer (Thermo, Waltham, MA) at 562 nm. Protein (20–100 μg) prepared from the indicated cells was loaded per lane and electrophoresed in 8% or 10% sodium dodecyl sulfate polyacrylamide gel electrophoresis (SDS-PAGE), and then transferred onto polyvinylidene difluoride (PVDF) Immobilon-P membrane (Bio-Rad, USA) using a transblot apparatus (Bio-Rad, USA). The membranes were blocked with 5% (w/v) non-fat milk at 0.5 h at 37°C, followed by overnight incubation at 4°C with primary antibodies diluted in PBST. After washing with PBST, the membranes were incubated for 1 h with an IRDye´800 conjugated secondary antibody diluted 1:20000 in PBST, and the labeled proteins were detected with an Odyssey Scanning System (Li-COR., Lincoln, Nebraska, USA).
# [5] = tested on: A549 and NCI-H1299 cancer cells; experiment: ROS measurement (DCF fluorescence); conditions: A549 and NCI-H1299, 10 μM
# Experimental: As excessive ROS generation is associated with cell-killing activity, we further examined whether complex 3 could also induce the formation of excessive ROS in A549 and NCI-H1299 cancer cells.
# The generation of ROS induced by complex 3 was determined with the cell permeant fluorogenic probe 2′,7′-dichlorodihydrofluorescein diacetate (H2DCFDA; Molecular Probes, Invitrogen, Darmstadt, Germany) as described. H2DCFDA diffuses into the cell, where it is enzymatically converted by intracellular esterases and oxidized into the high fluorescence compound DCF, which allows the determination of H2O2, peroxynitrite anions and peroxyl radicals. Approximately 4×10^3 A549 and NCI-H1299 cancer cells per well were plated on white bottom 96-well plates in extracellular fluid ([…] NaCl, 3 mM KCl, 1 mM CaCl2, 1 mM MgCl2, 10 mM HEPES and 25 mM glucose; pH 7.4). […] Then, cells were loaded with […] H2DCFDA for 30 min at 37°C and 5% CO2. Then, cells DCF generation was measured over time using a fluorometer (Fluostar BMG Labtech, Offenburg, Germany) at 492 nm excitation and 520 nm emission.
smiles,measurement,setting,value
CC(C)C[NH+]1[C@@H]2CCCC[C@H]2[NH+](CC(C)C)[Pt-2]12[O]C(=O)CC(=O)[O]2 (stereo partly shown) [Complex 3],colony formation,[1],significantly reduced colony formation
same,co-localization of MDC1/Aprataxin to the damaged DNA,[2],dramatically decrease in the co-localization of MDC1/Aprataxin
same,intracellular GSH levels,[3],did significantly reduce
same,levels of LC3-II,"[4]; A549, 10 μM complex 18 h, without NAC",2.3 folds
same,level of LC3-II,"[4]; A549, 10 μM, 24 h",2.5 folds
same,levels of LC3-II,"[4]; A549, 5 mM NAC 2 h pretreatment then 10 μM complex 18 h",1.5 folds
same,ROS production,[5],induced the production of significant amounts of ROS
